Consider 1 molecule from patent publication US5482954A, “Signal transduction inhibitor triazole and diazole compounds” (priority 1994, dated 1996).

Broadly, the IC50 is the point on the concentration scale where inhibition reaches its midpoint. What is called inhibition is the relative decrease from the control value, in per cent.

For data set [1] the following is noted: oral, nude mice; cited from earlier work.
A further data set concerns T24 (EJ) bladder. Kind of data set: Growth of tumor cell lines. It is filed as cell-based. Particulars: T-24 human bladder cancer with activated H-ras. The procedure: In one study, the cells were continuously exposed to 20 μM compound 1, and growth inhibition was measured. In a second study, cell lines which only grow in suspension were plated in 24 well plates (50,000 cells/well) and were incubated with increasing concentrations of compound 1. After 72 hr in culture, the cells were harvested, centrifuged,resuspended in a small volume. The number of remaining cells and their viability was determined using a hemocytometer.

The test system of data set [2] is CHOm5 cells. Kind of data set: Calcium ionophore A23187-stimulated 45Ca2+ influx. It is filed as cell-based, Chinese hamster. Conditions: Cricetulus griseus; FIG. 13, A23187. The procedure:
Calcium influx was determined using two methods. The first method involved the use of ^45 Ca^2+, while the second method utilized a fluorescent intracellular calcium chelator, Fura-2. The method using Fura-2 is semi-quantitative and is preferred for kinetic analysis and screening whereas the ^45 Ca^2+ method is quantitative.
CHOm5 cells in monolayer culture were washed free of serum-containing media and incubated with either carbachol or the calcium ionophore A23187 (from Molecular Probes, Eugene, Oreg., USA) in the presence of ^45 Ca^2+ and defined buffer (E2 medium with 0.1 mM MgCl2 and 1.0 mM CaCl2). After incubation for 5 min, the radioactive buffer was rapidly and repeatedly washed off with media containing LaCl3, a competitor of calcium efflux. The cell monolayer was solubilized and the calcium uptake was determined by scintillation counting.

Data set [3] has as its system HT-29 human colon cancer cells. The experiment in a line: Experimental pulmonary metastasis, tumor cells pretreated in vitro. It is filed as in vivo, nude mice. Particulars: cells treated 10 μg/mL, 24 hr; day 28. The protocol: Compound 1 was also tested for efficacy against HT-29 human colon cancer cells. HT-29 tumor cells were incubated with compound 1, 10 μg/mL, or DMSO vehicle (0.05%) for 24 hr. After harvesting and washing, one million cells were injected into the lateral tail vein of nude mice. Animals were humanely sacrificed on day 28, the lungs were inflated and fixed, and the number of pulmonary metastases were then counted. Observations on the size of the metastases were also made.

Another data set has as its system A2058 cells. Kind of data set: AMF-stimulated phosphatidyl inositol metabolism. It is filed as cell-based, human. The procedure:
This example illustrates the effect of compound 1 on the generation and release of phosphatidyl inositol from either A2058 cells (stimulated with autocrine motility factor) or CHOm5 cells (stimulated with carbachol).
A2058 cells were incubated with compound 1 (1.0 μg/mL) for 24 hr, then labelled overnight with [^3 H]inositol in serum-free, low inositol IMEM (LI-IMEM). Cells were then harvested, suspended, and incubated in LI-IMEM containing 10 mM LiCl for 30 min. The metabolism assay was initiated by the addition of either AMF or serum-free medium control to aliquots of 100,000 cells. The aliquots were incubated at 37° C. for 15 and 120 min, then washed twice with ice-cold PBS and extracted with chloroform:methanol (1:2). The total inositol phosphates were removed using Dowex anion exchange column chromatography eluted with ammonium formate 1.0 M/formic acid 0.1 M buffer. Total inositol phosphates and unincorporated total intracellular [^3 H]inositol were quantitated by […]. Data are expressed as a ratio of total inositol phosphates to total unincorporated [^3 H]inositol.

The test system of data set [4] is CHOm5 cells. The experiment in a line: Carbachol-stimulated arachidonic acid release. In kind it is cell-based, Chinese hamster. The source says:
This example illustrates the effect of selected compounds on the release of arachidonic acid from carbachol-stimulated CHOm5 cells. Carbachol is a muscarinic agonist which in the muscarinic receptor transfected CHO cells stimulates the activation of phospholipase A2, resulting in arachidonic acid release and metabolism. Downstream metabolites of arachidonic acid, prostaglandins and leukotrienes are also second messengers.
The effect of compound 1 on arachidonic acid release from CHOm5 cells was determined by incubating the cells to isotopic equilibrium with labelled arachidonic acid, then washing the cells twice with 1 mL of serum-free media supplemented with 20 mM HEPES and 0.2% bovine serum albumin (fatty acid free) to trap the unincorporated labelled arachidonic acid, and then simultaneously adding carbachol (100 μM) and increasing concentrations of 1. After 15 min, the reaction was stopped by removing the incubation media which was then centrifuged at 10,000×g to eliminate any nonadherent cells.

The subject of data set [5] is A2058 human melanoma cells. The experiment in a line: AMF-stimulated cell motility. In kind it is cell-based. The procedure:
(§1) The cell motility assay has been described. See, Stracke et al., Biochem. Biophys. Res. Comm., 146:339-345 (1987). Cells from the A2058 human melanoma line which was maintained in subconfluent culture were harvested with trypsin-EDTA, and were allowed to recover for 1 hr at room temperature. Cells from the 5R H-ras transformed (diploid) rat embryo fibroblast line were harvested with 2 mM EDTA in PBS without divalent cations. Cells were resuspended in serum-free media containing 0.1% BSA. This DMEM/0.1% BSA was used as the control for all subsequent assays. The assays were performed in triplicate using a 48-well chemotaxis chamber with 8μ Nucleopore, type IV collagen-coated filters. The chambers were incubated at 37° C. for 4 hr, stained and placed onto glass slides with the original cell side up so that the cell pellet could be wiped from the surface. Cells that had migrated through the pores were trapped between glass and membrane and could be quantitated by laser densitometry.
(§2) Compound 1 was preincubated with the cells for various periods of time, added at the start of the assay, or added later. Additionally, compound 1 remained present during the motility assay. The cells were assayed for their motile response to AMF. AMF stimulates random and directed locomotion of 5R ras-transfected rat embryo fibroblasts and A2058 human melanoma cells. […] Cell viability determined by trypan blue exclusion averaged greater than 96%. Cells exposed to various concentrations of compound 1 were tested for their response to AMF vs. control. Percent stimulated motility (in densitometer units) is defined as: […]
(§3) (AMF stimulated-control)Compound 1 /(AMF stimulated-control)untreated

Data set [6] deals with 5R ras-transfected rat embryo fibroblasts. Kind of data set: AMF-stimulated cell motility. In kind it is cell-based. The protocol: as §1, §2, §3
In data set [7] the test system is T-type voltage gated calcium channels. Conditions: Hupe, et al.; cited from earlier work.
Setting [8] is: overnight preincubation, AMF stimulation.

In the case of `NC(=O)c1nnn(Cc2cc(Cl)c(C(=O)c3ccc(Cl)cc3)c(Cl)c2)c1N` [Compound 1], the “toxicity to normal tissues including connective tissue, mucosal surfaces, and bone marrow” value in [1] is listed as “no toxicity to normal tissues”. Also, the inhibition of proliferation result in the data set with T24 (EJ) bladder was “inhibited proliferation”. Besides, the IC50 with CHOm5 cells [2] stood at 359 ± 11 nM; in the data set with CHOm5 cells [4] (Cricetulus griseus, 0.25 h, carbachol 100 μM, 15 min), 5200 ± 800 nM. Moreover, the “inhibition of pulmonary colonization” value in [3] worked out at 96%. In addition, in data set [3], the “size of pulmonary metastases” value is “marked reduction in size”. The “inhibition of AMF-stimulated phosphatidyl inositol hydrolysis” value in the data set with A2058 cells (1.0 μg/mL, 24 hr) was “significantly inhibited”. Further, the inhibition at 1 µg/mL in the data set on A2058 cells (Homo sapiens, A2058, 1.0 μg/mL, 24 hr, read-out: inhibition of AMF-stimulated phosphatidyl inositol hydrolysis) was roughly 45%. Further, the “effect on unstimulated cells (inositol phosphates)” value in the data set with A2058 cells (treated, unstimulated cells) is reported as “no appreciable effect”. For the same molecule, the “Arachidonic Acid Release (% of Control)” value in the data set on CHOm5 cells [4] (Table K) is listed as 50.9 ± 9 % of Control. The “inhibition of AMF-stimulated tumor cell motility” value in [5] (0.03-10 μg/ml) and in [6] (0.03-10 μg/ml) was “inhibited AMF-stimulated tumor cell motility in a dose dependent manner” in each case. Moreover, in [5] (1 (1 μg/ml) + PT (0.1 μg/ml), data not shown, cell line not stated), the “inhibition of motility, combination of 1 and PT vs either alone” value was “did not result in greater inhibition of motility than either drug alone”. Further, the “decrease in stimulated motility” value in [5] (setting [8]) and in data set [6] (setting [8]) was “up to 55%” each time. This molecule also had an inhibition of motility in data set [5] (same dose as PI assay (1.0 μg/mL)) of 45%. The “inhibition of T-type voltage gated calcium channels” value in data set [7] is given as “inhibit”.
